#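 These data come from cells grown in 96-well plates and exposed to compound for 48 hours at five concentrations. TGI: total growth inhibition.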
# Assays:
# Assay in all cases: DTP human tumour cell line panel, 48 h
# [1] = tested on: HCT-116 colon
# [2] = tested on: CCRF-CEM leukemia
# [3] = tested on: CAKI-1 renal
# [4] = tested on: SF-295 CNS
# [5] = tested on: MDA-MB-231 breast
# [6] = tested on: BT-549 breast
# [7] = tested on: HCC-2998 colon
# [8] = tested on: SNB-19 CNS
# [9] = tested on: 786-0 renal
# [10] = tested on: NCI/ADR-RES ovarian
# [11] = tested on: SF-539 CNS
# [12] = tested on: SF-268 CNS
# [13] = tested on: OVCAR-3 ovarian
# [14] = tested on: COLO 205 colon
# [15] = tested on: HS 578T breast
# [16] = tested on: MOLT-4 leukemia
# [17] = tested on: SK-MEL-5 melanoma
# [18] = tested on: OVCAR-4 ovarian
# [19] = tested on: OVCAR-8 ovarian
# [20] = tested on: NCI-H460 lung
# [21] = tested on: HCT-15 colon
# [22] = tested on: SK-MEL-2 melanoma
# [23] = tested on: NCI-H23 lung
# [24] = tested on: ACHN renal
# [25] = tested on: DU-145 prostate
# [26] = tested on: SN12C renal
# [27] = tested on: OVCAR-5 ovarian
# [28] = tested on: KM12 colon
# [29] = tested on: HT29 colon
# [30] = tested on: SW-620 colon
# [31] = tested on: MDA-N
# [32] = tested on: EKVX NSCLC
# [33] = tested on: SK-OV-3 ovarian
# [34] = tested on: RPMI-8226 leukemia
# [35] = tested on: MALME-3M melanoma
# [36] = tested on: RXF 393 renal
# [37] = tested on: T-47D breast
# [38] = tested on: UACC-62 melanoma
# [39] = tested on: LOX IMVI melanoma
# [40] = tested on: A549 NSCLC
# [41] = tested on: SK-MEL-28 melanoma
# [42] = tested on: M14 melanoma
# [43] = tested on: MDA-MB-435
# [44] = tested on: U251 CNS
# [45] = tested on: NCI-H522 lung
# [46] = tested on: MCF7 breast
# [47] = tested on: PC-3 prostate
# [48] = tested on: HOP-62 NSCLC
# [49] = tested on: TK-10 renal
# [50] = tested on: HL-60(TB) leukemia
# [51] = tested on: IGROV1 ovarian
# [52] = tested on: UACC-257 melanoma
# [53] = tested on: A498 renal
# [54] = tested on: UO-31 renal
# [55] = tested on: NCI-H226 lung
# [56] = tested on: HOP-92 NSCLC
# [57] = tested on: SR leukemia
# [58] = tested on: SNB-75 CNS
# [59] = tested on: K-562 leukemia
smiles,measurement,setting,value
COC(=O)[C@@H](OC(C)=O)[C@@H](OC(C)=O)c1nnc2ccc(Cl)nn12,TGI,[1],> 100 µM
same,TGI,[2],> 100 µM
same,TGI,[3],> 100 µM
same,TGI,[4],> 100 µM
same,TGI,[5],> 100 µM
same,TGI,[6],> 100 µM
same,TGI,[7],> 100 µM
same,TGI,[8],> 100 µM
same,TGI,[9],> 100 µM
same,TGI,[10],> 100 µM
same,TGI,[11],> 100 µM
same,TGI,[12],> 100 µM
same,TGI,[13],> 100 µM
same,TGI,[14],> 100 µM
same,TGI,[15],> 100 µM
same,TGI,[16],> 100 µM
same,TGI,[17],> 100 µM
same,TGI,[18],> 100 µM
same,TGI,[19],> 100 µM
same,TGI,[20],> 100 µM
same,TGI,[21],> 100 µM
same,TGI,[22],> 100 µM
same,TGI,[23],> 100 µM
same,TGI,[24],> 100 µM
same,TGI,[25],> 100 µM
same,TGI,[26],> 100 µM
same,TGI,[27],> 100 µM
same,TGI,[28],> 100 µM
same,TGI,[29],> 100 µM
same,TGI,[30],> 100 µM
same,TGI,[31],> 100 µM
same,TGI,[32],> 100 µM
same,TGI,[33],> 100 µM
same,TGI,[34],> 100 µM
same,TGI,[35],> 100 µM
same,TGI,[36],> 100 µM
same,TGI,[37],> 100 µM
same,TGI,[38],> 100 µM
same,TGI,[39],> 100 µM
same,TGI,[40],> 100 µM
same,TGI,[41],> 100 µM
same,TGI,[42],> 100 µM
same,TGI,[43],> 100 µM
same,TGI,[44],> 100 µM
same,TGI,[45],95.3 µM
same,TGI,[46],> 100 µM
same,TGI,[47],> 100 µM
same,TGI,[48],> 100 µM
same,TGI,[49],> 100 µM
same,TGI,[50],> 100 µM
same,TGI,[51],> 100 µM
same,TGI,[52],> 100 µM
same,TGI,[53],> 100 µM
CCc1ccc(Nc2cc(=O)n(C)c(SCc3ccccc3)n2)cc1,TGI,[1],57.1 µM
same,TGI,[2],> 100 µM
same,TGI,[3],> 100 µM
same,TGI,[4],> 100 µM
same,TGI,[5],> 100 µM
same,TGI,[6],> 100 µM
same,TGI,[54],> 100 µM
same,TGI,[8],> 100 µM
same,TGI,[9],34.4 µM
same,TGI,[10],> 100 µM
same,TGI,[55],> 100 µM
same,TGI,[11],> 100 µM
same,TGI,[12],> 100 µM
same,TGI,[13],> 100 µM
same,TGI,[56],> 100 µM
same,TGI,[14],45.2 µM
same,TGI,[15],> 100 µM
same,TGI,[16],> 100 µM
same,TGI,[17],> 100 µM
same,TGI,[19],> 100 µM
same,TGI,[21],> 100 µM
same,TGI,[22],> 100 µM
same,TGI,[23],> 100 µM
same,TGI,[24],> 100 µM
same,TGI,[25],> 100 µM
same,TGI,[26],42.8 µM
same,TGI,[27],> 100 µM
same,TGI,[28],> 100 µM
same,TGI,[29],60.4 µM
same,TGI,[30],> 100 µM
same,TGI,[31],> 100 µM
same,TGI,[32],> 100 µM
same,TGI,[33],> 100 µM
same,TGI,[35],> 100 µM
same,TGI,[57],> 100 µM
same,TGI,[36],> 100 µM
same,TGI,[37],> 100 µM
same,TGI,[38],> 100 µM
same,TGI,[39],> 100 µM
same,TGI,[40],> 100 µM
same,TGI,[42],> 100 µM
same,TGI,[43],> 100 µM
same,TGI,[58],> 100 µM
same,TGI,[45],> 100 µM
same,TGI,[46],> 100 µM
same,TGI,[48],> 100 µM
same,TGI,[49],> 100 µM
same,TGI,[59],> 100 µM
same,TGI,[50],> 100 µM
same,TGI,[51],> 100 µM
same,TGI,[52],> 100 µM
same,TGI,[53],29.7 µM
